Legend:
[1] = biological target: mGFP-K-RASG12V (Homo sapiens (Human), UniProt P01116, G12V); assay: K-Ras mislocalization assay (confocal microscopy, Manders coefficient); format: cell-based; set-up: key to Emax: Manders coefficient: fraction of mCherry-CAAX co-localizing with GFP-K-Ras; conditions: for Emax: maximal effect, Manders coefficient; for Emax / IC50 / EC50: MDCK cells; for Emax / EC50: 48 h; for IC50: 48 h treatment, read-out: IC50 (μM), KRASG12V mislocalization; for EC50: batch 4 compounds, title calls it IC50, read-out: EC50; for fold loss of potency to mislocalize KRAS: in comparison with 7
In short: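 Readout is the Manders coefficient: share of mCherry-CAAX overlapping mGFP-K-RASG12V in confocal images, proportional to K-Ras mislocalization. Stable MDCK co-expressing lines were exposed 48 h to various drug concentrations or 0.1% DMSO vehicle, then paraformaldehyde-fixed.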

[2] = tested on: MDCK cells co-expressing GFP-K-RASG12V and mCherry-CAAX; assay: Cytotoxicity in mislocalization screen (death of all cells in well); conditions: drug caused death of all cells in well at 30 μM

Row | Emax [1] | IC50 [1] [µM] | EC50 [1] [µM] | Compound | Cytotoxic at 30 μM [2] | Emax ([1]; listed as 15h) | fold loss of potency to mislocalize KRAS [1] [fold]
1 | 0.845 | – | 0.91 | CCNC(=O)N(CC=C(c1ccccc1)c1ccccc1)[C@H](C)c1ccc(OC)cc1 [NY0504, (R)-1-(3,3-diphenylallyl)-3-ethyl-1-(1-(4-methoxyphenyl)ethyl)urea] | No | – | –
2 | 0.825 | – | – | COc1ccc([C@@H](C)N(CC=C(c2ccccc2)c2ccccc2)CCN2CCN(C(=O)C(C)F)CC2)cc1 (stereo partly drawn) [NY0591, 1-(4-(2-((3,3-diphenylallyl)((R)-1-(4-methoxyphenyl)ethyl)amino)ethyl)piperazin-1-yl)-2-fluoropropan-1-one] | No | – | –
3 | 0.605 | 3.65 | – | COc1ccc(CCN(CC=C(c2ccccc2)c2ccccc2)CC=C(c2ccccc2)c2ccccc2)cc1 [NY0220, N-(3,3-diphenylallyl)-N-(4-methoxyphenethyl)-3,3-diphenylprop-2-en-1-amine] | No | – | –
4 | 0.622 | 0.64 | – | COc1ccc(NC(=O)N(CC=C(c2ccccc2)c2ccccc2)[C@H](C)c2ccc(OC)cc2)cc1 [NY0224, (R)-1-(3,3-diphenylallyl)-3-(4-methoxyphenyl)-1-(1-(4-methoxyphenyl)ethyl)urea] | No | – | –

Continued, compound first:

Row | Compound | Emax [1] | IC50 [1] [µM] | EC50 [1] [µM] | Cytotoxic at 30 μM [2] | Emax ([1]; listed as 15h) | fold loss of potency to mislocalize KRAS [1] [fold]
5 | C[C@@H](NCCN1c2ccccc2CCc2ccccc21)c1ccccc1 [NY0553, (R)-2-(10,11-dihydro-5H-dibenzo[b,f]azepin-5-yl)-N-(1-phenylethyl)ethan-1-amine] | 0.452 | – | – | No | – | –
6 | COc1ccc([C@@H](C)N(CC=C(c2ccccc2)c2ccccc2)CCN2CCN(C(=O)OC(C)(C)C)CC2)cc1 [NY345, (R)-tert-butyl 4-(2-((3,3-diphenylallyl)(1-(4-methoxyphenyl)ethyl)amino)ethyl) piperazine-1-carboxylate] | 0.819 | 0.329 | – | No | – | –
7 | C[C@H](c1ccc([N+](=O)[O-])cc1)N(CC=C(c1ccccc1)c1ccccc1)CCN1CCN(C)CC1 [NY0522, (R)-N-(2-(4-methylpiperazin-1-yl)ethyl)-N-(1-(4-nitrophenyl)ethyl)-3,3-diphenylprop-2-en-1-amine] | 0.621 | 5.2 | 5.17 | Yes | 0.62 ± 0.02 | –
8 | CN1CCN(C(=O)[C@H](NCC=C(c2ccccc2)c2ccccc2)c2ccccc2)CC1 [NY0557, (R)-2-((3,3-diphenylallyl)amino)-1-(4-methylpiperazin-1-yl)-2-phenylethan-1-one] | 0.732 | – | – | No | – | –
9 | C[C@@H](NCCN1c2ccccc2Sc2ccccc21)c1ccccc1 [NY0574, (R)-N-(2-(10H-phenothiazin-10-yl)ethyl)-1-phenylethan-1-amine] | 0.842 | – | 4.82 | No | – | –
10 | COc1ccc([C@@H](C)N(C)CC=C(c2ccccc2)c2ccccc2)cc1 [NY0218, (R)-N-(1-(4-methoxyphenyl)ethyl)-N-methyl-3,3-diphenylprop-2-en-1-amine] | 0.75 ± 0.01 | 3.3 | – | No | – | 7
11 | C[C@H](c1ccc(F)cc1)N(CCN1CCCC1)C(=O)Nc1ccc(C(F)(F)F)cc1 [PW321, (R)-1-(1-(4-Fluorophenyl)ethyl)-1-(2-(pyrrolidin-1-yl)ethyl)-3-(4-(trifluoromethyl)phenyl)urea] | 0.587 | – | – | No | – | –
12 | O=C(c1ccc(F)cc1)N(CC=C(c1ccccc1)c1ccccc1)CCN1CCCC1 [PW276, N-(3,3-diphenylallyl)-4-fluoro-N-(2-(pyrrolidin-1-yl)ethyl)benzamide] | 0.572 | 4.8 | – | Yes | – | –
13 | COc1ccc([C@@H](C)N(CC=C(c2ccccc2)c2ccccc2)CCF)cc1 [NY315, (R)-N-(2-fluoroethyl)-N-(1-(4-methoxyphenyl)ethyl)-3,3-diphenylprop-2-en-1-amine] | 0.52 ± 0.04 | 10.1 | – | No | – | 20
